Like-named read-outs stand apart in the source and are kept apart here.
What was measured:
[1] = tested on: bovine aortic vascular endothelial cells
Description: A test was conducted to investigate the interaction of the compounds of the invention with vascular endothelial growth factor (VEGF). As the VEGF, human recombinant VEGF was used (Vascular Endothelial Growth Factor, Human, Recombinant, For Biochemical Use: a product of Wako Pure Chemical Industries).
The test was conducted in the same manner as in Example 12, but VEGF (final concentration 10 ng/mL) was added simultaneously with the addition of the compound. As comparative tests, a VEGF single addition test (a test in which only VEGF was added) and a negative control test (a test in which neither the compound nor VEGF was added) were performed. The effect on vascular endothelial cell growth was measured in the same way as in Example 12.
The vascular endothelial cell growth promoting action of each of the compounds was evaluated from the following equation:
Promoting rate (%)={(Increase in the BrdU uptake in the compound addition test)/(Increase in the BrdU uptake in the negative control test)}×100

[2] = tested on: bovine aortic vascular endothelial cells; test: Vascular endothelial cell growth promoting action (BrdU uptake); assay type: cell-based; conditions: 20 hours
Description: This test used bovine aortic vascular endothelial cells (passage number 3) as cells, and MEM containing 10% FCS (fetal calf serum), 100 units/mL penicillin G, and 100 μg/mL streptomycin as a culture medium. […] Culture was performed for 20 hours at 37° C. and 5% CO2, and then the effect of the compounds on vascular endothelial cell growth was measured using “Cell Growth ELISA, BrdU Color Development Kit” (Boehringer Mannheim) (uptake of 5-bromodeoxyuridine (BrdU) was adopted as an indicator).

[3] = tested on: rabbit platelet rich plasma; conditions: read-out: 50% Inhibitory Concentration; collagen-induced platelet aggregation, rabbit PRP
Description: Blood was taken from the rabbit aorta in an amount of 9 volumes of the blood per volume of a 3.8% aqueous solution of sodium citrate. The blood sample was immediately centrifuged (50×g, 10 min, room temperature) to obtain platelet rich plasma (PRP) as a supernatant. […] The mixture was held for 1 minute at 37° C., and then 10 μL of 10 μg/mL collagen (bovine tendon collagen: a product of Meiji Yakuhin) was added as an aggregation inducer. An aggregation curve was recorded for 7 minutes after addition.

[4] = compound concentration 0.1 μg/mL + VEGF 10 ng/mL
[5] = compound concentration 0.5 μg/mL + VEGF 10 ng/mL
[6] = compound concentration 1 μg/mL + VEGF 10 ng/mL
[7] = compound concentration 5 μg/mL + VEGF 10 ng/mL
[8] = compound concentration 10 μg/mL + VEGF 10 ng/mL
[9] = compound concentration 0.1 μg/mL
[10] = compound concentration 0.5 μg/mL
[11] = compound concentration 10 μg/mL

4-deoxy-α-L-threo-hexa-4-enepyranuronosyl-(1→3)-O-2-acetamide-2-deoxy-β-D-glucopyranosyl-(1→4)-3-O-β-D-glucopyranuronic acid [Compound Example 7]
Promoting rate [1, 4]: 165.0%
Promoting rate [1, 5]: 206.2%
Promoting rate [1, 6]: 235.9%
Promoting rate [1, 7]: 228.7%
Promoting rate [1, 8]: 191.3%
Promoting rate [2, 9]: 104.8%
Promoting rate [2, 10]: 139.7%
Promoting rate ([2]; compound concentration 1 μg/mL): 172.6%
Promoting rate ([2]; compound concentration 5 μg/mL): 170.0%
Promoting rate [2, 11]: 129.7%

4-deoxy-α-L-threo-hexa-4-enepyranuronosyl-(1→3)-O-2-acetamide-2-deoxy-β-D-glucopyranosyl-(1→4)-3-O-β-D-glucopyranuronitol [Compound Example 9]
Promoting rate [1, 4]: 159.8%
Promoting rate [1, 5]: 200.2%
Promoting rate [1, 6]: 245.6%
Promoting rate [1, 7]: 244.2%
Promoting rate [1, 8]: 196.8%
Promoting rate [2, 9]: 102.8%
Promoting rate [2, 10]: 139.5%
Promoting rate ([2]; compound concentration 1 μg/mL): 180.3%
Promoting rate ([2]; compound concentration 5 μg/mL): 179.3%
Promoting rate [2, 11]: 133.4%

4-deoxy-α-L-threo-hexa-4-enepyranuronosyl-(1→3)-O-2-acetamide-2-deoxy-β-D-glucopyranosyl-(1→4)-3-O-β-D-glucopyranuronosyl-(1→3)-O-2-acetamide-2-deoxy-β-D-glucopyranitol [Compound Example 5]
Promoting rate [1, 4]: 160.9%
Promoting rate [1, 5]: 205.0%
Promoting rate [1, 6]: 243.8%
Promoting rate [1, 7]: 231.1%
Promoting rate [1, 8]: 200.4%
Promoting rate [2, 9]: 101.1%
Promoting rate [2, 10]: 144.2%
Promoting rate ([2]; compound concentration 1 μg/mL): 182.7%
Promoting rate ([2]; compound concentration 5 μg/mL): 169.9%
Promoting rate [2, 11]: 141.1%

4-deoxy-α-L-threo-hexa-4-enepyranuronosyl-(1→3)-O-2-acetamide-2-deoxy-β-D-glucopyranosyl-(1→4)-3-O-β-D-glucopyranuronosyl-(1→3)-O-2-acetamide-2-deoxy-β-D-glucopyranose [Compound Example 1]
IC50 [3]: 2700 nM

4-deoxy-α-L-threo-hexa-4-enepyranuronosyl-(1→3)-O-2-acetamide-2-deoxy-β-D-glucopyranosyl-(1→4)-3-O-β-D-glucopyranuronosyl-(1→3)-O-2-acetamide-2-deoxy-β-D-glucopyranosyl-(1→4)-3-O-β-D-glucopyranuronic acid [Compound Example 8]
IC50 [3]: 3.8 nM
Promoting rate [1, 4]: 168.7%
Promoting rate [1, 5]: 202.9%
Promoting rate [1, 6]: 251.2%
Promoting rate [1, 7]: 224.9%
Promoting rate [1, 8]: 199.2%
Promoting rate [2, 9]: 103.3%
Promoting rate [2, 10]: 140.9%
Promoting rate ([2]; compound concentration 1 μg/mL): 181.1%
Promoting rate ([2]; compound concentration 5 μg/mL): 168.7%
Promoting rate [2, 11]: 141.3%

4-deoxy-α-L-threo-hexa-4-enepyranuronosyl-(1→3)-O-2-acetamide-2-deoxy-β-D-glucopyranosyl-(1→4)-3-O-β-D-glucopyranuronosyl-(1→3)-O-2-acetamide-2-deoxy-β-D-glucopyranosyl-(1→4)-3-O-β-D-glucopyranuronosyl-(1→3)-O-2-acetamide-2-deoxy-β-D-glucopyranitol [Compound Example 6]
IC50 [3]: 2.7 nM
Promoting rate [1, 4]: 159.8%
Promoting rate [1, 5]: 205.2%
Promoting rate [1, 6]: 232.2%
Promoting rate [1, 7]: 224.8%
Promoting rate [1, 8]: 205.7%
Promoting rate [2, 9]: 100.5%
Promoting rate [2, 10]: 143.8%
Promoting rate ([2]; compound concentration 1 μg/mL): 167.9%
Promoting rate ([2]; compound concentration 5 μg/mL): 168.8%
Promoting rate [2, 11]: 142.2%

4-deoxy-α-L-threo-hexa-4-enepyranuronosyl-(1→3)-O-2-acetamide-2-deoxy-β-D-glucopyranosyl-(1→4)-3-O-β-D-glucopyranuronosyl-(1→3)-O-2-acetamide-2-deoxy-β-D-glucopyranosyl-(1→4)-3-O-β-D-glucopyranuronosyl-(1→3)-O-2-acetamide-2-deoxy-β-D-glucopyranose [Compound Example 2]
IC50 [3]: 3.2 nM

VEGF
Promoting rate ([1]; VEGF added alone, 10 ng/mL (compound concentration 0)): 148.5%

Reference: patent US6613897B1, “Compounds having glucuronic acid derivatives and glucosamine derivative in the structure, process for producing the same and utilization thereof” (Maruha Corporation, priority 1998, dated 2003)
